Source: paper PMC5218480 (PLoS ONE, 2017)

Test system: MV-4-11 cells
Experiment: Gene expression microarray analysis (Affymetrix PrimeView) and GSEA
Format: cell-based, human
Set-up: RFU PODN (11730768_x_at) / Fold change /veh PODN (11730768_x_at) / RFU LINC00158 (11744669_a_at) / Fold change /veh LINC00158 (11744669_a_at) / RFU DUSP10 (11751237_a_at) / Fold change /veh DUSP10 (11751237_a_at) / RFU ID3 (11757404_x_at) / Fold change /veh ID3 (11757404_x_at) / RFU PLEKHG5 (11737974_s_at) / Fold change /veh PLEKHG5 (11737974_s_at) / RFU LRRC4B (11730491_at) / Fold change /veh LRRC4B (11730491_at) / RFU GIMAP4 (11747438_a_at) / Fold change /veh GIMAP4 (11747438_a_at) / RFU KRT8 (11758183_x_at) / Fold change /veh KRT8 (11758183_x_at) / RFU CNN1 (11734310_a_at) / Fold change /veh CNN1 (11734310_a_at) / RFU VPS37D (11726825_at) / Fold change /veh VPS37D (11726825_at) / RFU C10orf10 (11716522_x_at) / Fold change /veh C10orf10 (11716522_x_at) / RFU KIR2DL2 /// KIR2DL4 /// KIR2DL5A /// KIR2DL5B /// KIR2DS1 /// KIR2DS2 /// KIR2DS3 /// KIR2DS4 /// KIR3DL3 /// KIR3DL3 /// KIR3DS1 (11738374_at) / Fold change /veh KIR2DL2 /// KIR2DL4 /// KIR2DL5A /// KIR2DL5B /// KIR2DS1 /// KIR2DS2 /// KIR2DS3 /// KIR2DS4 /// KIR3DL3 /// KIR3DL3 /// KIR3DS1 (11738374_at) / RFU C1QL1 (11718748_at) / Fold change /veh C1QL1 (11718748_at) / RFU TMPRSS4 (11747572_a_at) / Fold change /veh TMPRSS4 (11747572_a_at) / RFU HAMP (11756126_x_at) / Fold change /veh HAMP (11756126_x_at) / RFU RNFT2 (11725882_a_at) / Fold change /veh RNFT2 (11725882_a_at) / RFU NR4A2 (11747474_a_at) / Fold change /veh NR4A2 (11747474_a_at) / RFU ABCC12 (11746883_a_at) / Fold change /veh ABCC12 (11746883_a_at) / RFU TMEM136 (11760407_x_at) / Fold change /veh TMEM136 (11760407_x_at) / RFU CLDN22 /// WWC2 (11732394_at) / Fold change /veh CLDN22 /// WWC2 (11732394_at) / RFU HLA-DPB1 (11760878_x_at) / Fold change /veh HLA-DPB1 (11760878_x_at) / RFU SPINT1 (11716480_a_at) / Fold change /veh SPINT1 (11716480_a_at) / RFU GAP43 (11754022_s_at) / Fold change /veh GAP43 (11754022_s_at) / RFU A4GNT (11735810_at) / Fold change /veh A4GNT (11735810_at) / RFU PRB3 (11715151_x_at) / Fold change /veh PRB3 (11715151_x_at) / RFU TUBB4B (11761932_at) / Fold change /veh TUBB4B (11761932_at) / RFU CAPN14 (11732068_a_at) / Fold change /veh CAPN14 (11732068_a_at) / RFU TMCC2 (11721928_a_at) / Fold change /veh TMCC2 (11721928_a_at) / RFU IRGQ (11745062_a_at) / Fold change /veh IRGQ (11745062_a_at) / RFU FAM174B (11720279_a_at) / Fold change /veh FAM174B (11720279_a_at) / RFU TMPRSS4 (11748680_a_at) / Fold change /veh TMPRSS4 (11748680_a_at) / RFU FAM212B (11763350_a_at) / Fold change /veh FAM212B (11763350_a_at) / RFU PLEKHG5 (11743358_a_at) / Fold change /veh PLEKHG5 (11743358_a_at) / RFU ZSCAN30 (11745921_a_at) / Fold change /veh ZSCAN30 (11745921_a_at) / RFU CMKLR1 (11741424_a_at) / Fold change /veh CMKLR1 (11741424_a_at) / RFU LOC101060620 /// MAPK8IP1 (11723275_at) / Fold change /veh LOC101060620 /// MAPK8IP1 (11723275_at) / RFU SPTSSB (11747773_x_at) / Fold change /veh SPTSSB (11747773_x_at) / RFU PRSS12 (11739890_at) / Fold change /veh PRSS12 (11739890_at) / RFU BIN1 (11741810_x_at) / Fold change /veh BIN1 (11741810_x_at) / RFU WNT11 (11732464_a_at) / Fold change /veh WNT11 (11732464_a_at) / RFU C10orf10 (11716521_a_at) / Fold change /veh C10orf10 (11716521_a_at) / RFU C5orf56 (11738089_at) / Fold change /veh C5orf56 (11738089_at) / RFU CYB561 (11721691_x_at) / Fold change /veh CYB561 (11721691_x_at) / RFU ANKRD19P (11752326_a_at) / Fold change /veh ANKRD19P (11752326_a_at) / RFU OR2T12 /// OR2T33 /// OR2T8 (11738714_s_at) / Fold change /veh OR2T12 /// OR2T33 /// OR2T8 (11738714_s_at) / RFU VCAN (11748164_a_at) / Fold change /veh VCAN (11748164_a_at) / RFU JSRP1 (11732532_at) / Fold change /veh JSRP1 (11732532_at) / RFU KRTAP10-11 (11738290_x_at) / Fold change /veh KRTAP10-11 (11738290_x_at) / RFU MYO3A (11730013_a_at) / Fold change /veh MYO3A (11730013_a_at) / RFU EBF3 (11725865_a_at) / Fold change /veh EBF3 (11725865_a_at) / RFU CAMK2N1 (11719241_x_at) / Fold change /veh CAMK2N1 (11719241_x_at) / RFU C5orf56 (11738088_a_at) / Fold change /veh C5orf56 (11738088_a_at) / RFU OLFML3 (11715873_a_at) / Fold change /veh OLFML3 (11715873_a_at) / RFU LOC100653217 /// NTM (11731650_a_at) / Fold change /veh LOC100653217 /// NTM (11731650_a_at) / RFU MAPK11 (11762145_a_at) / Fold change /veh MAPK11 (11762145_a_at) / RFU FIZ1 (11724087_x_at) / Fold change /veh FIZ1 (11724087_x_at) / RFU OASL (11726364_x_at) / Fold change /veh OASL (11726364_x_at) / RFU SOX15 (11748057_x_at) / Fold change /veh SOX15 (11748057_x_at) / RFU CD79A (11719716_a_at) / Fold change /veh CD79A (11719716_a_at) / RFU HIST1H1D (11736915_at) / Fold change /veh HIST1H1D (11736915_at) / RFU CASKIN2 (11723855_a_at) / Fold change /veh CASKIN2 (11723855_a_at) / RFU LOC730098 (11760151_x_at) / Fold change /veh LOC730098 (11760151_x_at) / RFU OR4N2 (11742367_at) / Fold change /veh OR4N2 (11742367_at) / RFU PRRT2 (11749266_a_at) / Fold change /veh PRRT2 (11749266_a_at) / RFU SNX32 (11753110_a_at) / Fold change /veh SNX32 (11753110_a_at) / RFU CDHR5 (11726645_a_at) / Fold change /veh CDHR5 (11726645_a_at) / RFU RCAN1 (11760418_a_at) / Fold change /veh RCAN1 (11760418_a_at) / RFU FAM167A (11723789_a_at) / Fold change /veh FAM167A (11723789_a_at) / RFU FAM26E (11764081_at) / Fold change /veh FAM26E (11764081_at) / RFU ISYNA1 (11749810_s_at) / Fold change /veh ISYNA1 (11749810_s_at) / RFU ACY1 (11761880_at) / Fold change /veh ACY1 (11761880_at) / RFU 11764098_at / Fold change /veh 11764098_at / RFU SAMD14 (11745864_x_at) / Fold change /veh SAMD14 (11745864_x_at) / RFU NPB (11741838_a_at) / Fold change /veh NPB (11741838_a_at) / RFU TMPRSS6 (11731388_a_at) / Fold change /veh TMPRSS6 (11731388_a_at) / RFU KRTAP10-2 (11738614_at) / Fold change /veh KRTAP10-2 (11738614_at) / RFU ARHGAP8 /// PRR5-ARHGAP8 (11727945_x_at) / Fold change /veh ARHGAP8 /// PRR5-ARHGAP8 (11727945_x_at) / RFU KRTAP5-7 /// NADSYN1 (11734609_at) / Fold change /veh KRTAP5-7 /// NADSYN1 (11734609_at) / RFU RASL12 (11751679_a_at) / Fold change /veh RASL12 (11751679_a_at) / RFU CDKN2B (11736163_a_at) / Fold change /veh CDKN2B (11736163_a_at) / RFU PRF1 (11729649_at) / Fold change /veh PRF1 (11729649_at) / RFU, ZNF638 /// ZNF638-IT1 / Fold change vs veh, ZNF638 /// ZNF638-IT1 / RFU, PANK3 / Fold change vs veh, PANK3 / RFU, SH3YL1 / Fold change vs veh, SH3YL1 / RFU, ZEB2 / Fold change vs veh, ZEB2 / RFU, NRIP1 / Fold change vs veh, NRIP1 / RFU, PTTG1IP / Fold change vs veh, PTTG1IP / RFU, CAPN2 / Fold change vs veh, CAPN2 / RFU, MED14 / Fold change vs veh, MED14 / RFU, SNORA58 / Fold change vs veh, SNORA58 / RFU, C1orf63 / Fold change vs veh, C1orf63 / RFU, LRRFIP1 / Fold change vs veh, LRRFIP1 / RFU, NDUFAF7 / Fold change vs veh, NDUFAF7 / RFU, SLC12A2 / Fold change vs veh, SLC12A2 / RFU, IBTK / Fold change vs veh, IBTK / RFU, ESF1 / Fold change vs veh, ESF1 / Fold change vs veh, TMEM50B / RFU, TAOK1 / Fold change vs veh, TAOK1 / RFU, ACBD3 / Fold change vs veh, ACBD3 / RFU, TMA16 / Fold change vs veh, TMA16 / RFU, RWDD3 / Fold change vs veh, RWDD3 / RFU, BCAT1 / Fold change vs veh, BCAT1 / RFU, EDEM3 / Fold change vs veh, EDEM3 / RFU, TMEM33 / Fold change vs veh, TMEM33 / RFU, WDR75 / Fold change vs veh, WDR75 / RFU, AHCTF1 / Fold change vs veh, AHCTF1 / RFU, TFRC / Fold change vs veh, TFRC / RFU, ZDHHC17 / Fold change vs veh, ZDHHC17 / RFU, NOM1 / Fold change vs veh, NOM1 / RFU, ARL8B / Fold change vs veh, ARL8B / RFU, ZBTB11 / Fold change vs veh, ZBTB11 / RFU, TAMM41 / Fold change vs veh, TAMM41 / RFU, KIAA1704 /// LOC100996395 / Fold change vs veh, KIAA1704 /// LOC100996395 / RFU, ING1 / Fold change vs veh, ING1 / RFU, TRMT61B / Fold change vs veh, TRMT61B / RFU, FUBP3 / Fold change vs veh, FUBP3 / RFU, TP53 / Fold change vs veh, TP53 / RFU, TNKS2 / Fold change vs veh, TNKS2 / RFU, ZFP14 / Fold change vs veh, ZFP14 / RFU, ACTR2 / Fold change vs veh, ACTR2 / RFU, PPP3R1 / Fold change vs veh, PPP3R1 / RFU, PIK3R1 / Fold change vs veh, PIK3R1 / RFU, HNRNPA1 / Fold change vs veh, HNRNPA1 / RFU, RNF170 / Fold change vs veh, RNF170 / RFU, ZNF28 / Fold change vs veh, ZNF28 / RFU, RNGTT / Fold change vs veh, RNGTT / RFU, OGT / Fold change vs veh, OGT / RFU, BRD1 / Fold change vs veh, BRD1 / RFU, MARS / Fold change vs veh, MARS / RFU, ZNF655 / Fold change vs veh, ZNF655 / RFU, FAHD1 / Fold change vs veh, FAHD1 / RFU, BDP1 / Fold change vs veh, BDP1 / RFU, LRRCC1 / Fold change vs veh, LRRCC1 / RFU, ARID1A / Fold change vs veh, ARID1A / RFU, ZNF146 / Fold change vs veh, ZNF146 / RFU, ZNF330 / Fold change vs veh, ZNF330 / RFU, GPN3 / Fold change vs veh, GPN3 / RFU, C9orf123 / Fold change vs veh, C9orf123 / RFU, N4BP2L2 / Fold change vs veh, N4BP2L2 / RFU, ARFIP1 / Fold change vs veh, ARFIP1 / RFU, FAM179B / Fold change vs veh, FAM179B / RFU, BCL10 / Fold change vs veh, BCL10 / RFU, UHRF1BP1L / Fold change vs veh, UHRF1BP1L / RFU, BET1 / Fold change vs veh, BET1 / RFU, CNOT2 / Fold change vs veh, CNOT2 / RFU, ZNF268 / Fold change vs veh, ZNF268 / Fold change vs veh, ZNF507 / RFU, DGCR2 / Fold change vs veh, DGCR2 / RFU, WDSUB1 / Fold change vs veh, WDSUB1 / Fold change vs veh, HSP90B1 /// MIR3652 / RFU, ADSS / Fold change vs veh, ADSS / RFU, GK / Fold change vs veh, GK / RFU, ZNF148 / Fold change vs veh, ZNF148 / RFU, TAF9 / Fold change vs veh, TAF9 / RFU, SLC1A5 / Fold change vs veh, SLC1A5 / RFU, SLMO2 / Fold change vs veh, SLMO2 / RFU, ABCC4 / Fold change vs veh, ABCC4 / RFU, LOC101060439 /// RAP1B / Fold change vs veh, LOC101060439 /// RAP1B / RFU, RFX7 / Fold change vs veh, RFX7 / RFU, GTPBP10 / Fold change vs veh, GTPBP10 / RFU, CNEP1R1 / Fold change vs veh, CNEP1R1 / RFU, BIVM-ERCC5 /// ERCC5 / Fold change vs veh, BIVM-ERCC5 /// ERCC5 / RFU, ILF3 / Fold change vs veh, ILF3 / RFU 11762660_at / Fold change /veh 11762660_at / RFU VCAN (11757783_s_at) / Fold change /veh VCAN (11757783_s_at) / RFU DDX43 (11728927_at) / Fold change /veh DDX43 (11728927_at) / RFU KRT8 (11758188_x_at) / Fold change /veh KRT8 (11758188_x_at) / RFU NKD1 (11759106_at) / Fold change /veh NKD1 (11759106_at) / RFU SRD5A1 (11742802_a_at) / Fold change /veh SRD5A1 (11742802_a_at) / RFU TPSAB1 /// TPSB2 (11721975_s_at) / Fold change /veh TPSAB1 /// TPSB2 (11721975_s_at) / RFU GSTM3 (11746129_a_at) / Fold change /veh GSTM3 (11746129_a_at) / RFU IL23R (11737362_x_at) / Fold change /veh IL23R (11737362_x_at) / RFU TMEM51 (11727254_a_at) / Fold change /veh TMEM51 (11727254_a_at) / RFU PIWIL2 (11732686_x_at) / Fold change /veh PIWIL2 (11732686_x_at) / RFU ORM1 (11744905_x_at) / Fold change /veh ORM1 (11744905_x_at) / RFU CCDC152 (11743942_at) / Fold change /veh CCDC152 (11743942_at) / RFU ECM1 (11717891_a_at) / Fold change /veh ECM1 (11717891_a_at) / RFU IL23R (11748794_a_at) / Fold change /veh IL23R (11748794_a_at) / RFU TNFAIP8L3 (11732012_x_at) / Fold change /veh TNFAIP8L3 (11732012_x_at) / RFU MBOAT4 (11741988_at) / Fold change /veh MBOAT4 (11741988_at) / RFU 11764193_at / Fold change /veh 11764193_at / RFU TMEM53 (11763286_at) / Fold change /veh TMEM53 (11763286_at) / RFU MAGEB2 (11727129_at) / Fold change /veh MAGEB2 (11727129_at) / RFU TMEM200A (11744735_a_at) / Fold change /veh TMEM200A (11744735_a_at) / RFU CCDC152 (11751479_a_at) / Fold change /veh CCDC152 (11751479_a_at) / RFU FAM211A (11726209_a_at) / Fold change /veh FAM211A (11726209_a_at) / RFU RGS16 (11746705_a_at) / Fold change /veh RGS16 (11746705_a_at) / RFU VCAN (11755009_s_at) / Fold change /veh VCAN (11755009_s_at) / RFU RHOB (11743442_s_at) / Fold change /veh RHOB (11743442_s_at) / RFU RGS16 (11720943_a_at) / Fold change /veh RGS16 (11720943_a_at) / RFU RGS16 (11720944_at) / Fold change /veh RGS16 (11720944_at) / RFU, VPS4B / Fold change vs veh, VPS4B / RFU, CREB1 / Fold change vs veh, CREB1 / RFU, DNAJC13 / Fold change vs veh, DNAJC13 / RFU, GNAQ / Fold change vs veh, GNAQ / RFU, CDK5R1 / Fold change vs veh, CDK5R1 / RFU, ZRANB3 / Fold change vs veh, ZRANB3 / RFU, CUL4A / Fold change vs veh, CUL4A / RFU, CCNY / Fold change vs veh, CCNY / RFU, UFL1 / Fold change vs veh, UFL1 / RFU, COG3 / Fold change vs veh, COG3 / RFU, DIAPH2 / Fold change vs veh, DIAPH2 / RFU, SKA2 / Fold change vs veh, SKA2 / RFU, AFF3 / Fold change vs veh, AFF3 / RFU, LMF1 / Fold change vs veh, LMF1 / RFU, IPO11 / Fold change vs veh, IPO11 / RFU, DFFB / Fold change vs veh, DFFB / RFU, FOXP1 / Fold change vs veh, FOXP1 / RFU, CARD8 / Fold change vs veh, CARD8 / RFU, STRN3 / Fold change vs veh, STRN3 / RFU, ADK / Fold change vs veh, ADK / RFU, RASSF2 / Fold change vs veh, RASSF2 / RFU, WIPF1 / Fold change vs veh, WIPF1 / RFU, LARP1B / Fold change vs veh, LARP1B / RFU, RASA1 / Fold change vs veh, RASA1 / RFU, RB1 / Fold change vs veh, RB1 / RFU, PPFIA1 / Fold change vs veh, PPFIA1 / RFU, MAT2A / Fold change vs veh, MAT2A / RFU, CCT5 / Fold change vs veh, CCT5 / RFU, WDR92 / Fold change vs veh, WDR92 / RFU, CUX1 / Fold change vs veh, CUX1 / RFU, TTC7A / Fold change vs veh, TTC7A / RFU, TMEM135 / Fold change vs veh, TMEM135 / RFU, DEPTOR / Fold change vs veh, DEPTOR / RFU, CPM / Fold change vs veh, CPM / RFU, DNAJB6 / Fold change vs veh, DNAJB6 / RFU, CACNA2D3 / Fold change vs veh, CACNA2D3 / RFU, DTX4 / Fold change vs veh, DTX4 / RFU, TFCP2 / Fold change vs veh, TFCP2 / RFU, GMCL1 /// GMCL1P1 / Fold change vs veh, GMCL1 /// GMCL1P1 / RFU, AEBP2 / Fold change vs veh, AEBP2 / RFU, SNHG1 /// SNORD22 /// SNORD25 /// SNORD26 /// SNORD27 /// SNORD28 /// SNORD29 /// SNORD31 / Fold change vs veh, SNHG1 /// SNORD22 /// SNORD25 /// SNORD26 /// SNORD27 /// SNORD28 /// SNORD29 /// SNORD31 / Fold change (Aza/veh), C12orf56 (ProbeSet 11735607_a_at) / Fold change (ACY-1035/veh), C12orf56 (ProbeSet 11735607_a_at) / Fold change (Aza/veh), FGFR1OP (ProbeSet 11751329_s_at) / Fold change (ACY-1035/veh), FGFR1OP (ProbeSet 11751329_s_at) / Fold change (Aza/veh), VPS36 (ProbeSet 11739960_a_at) / Fold change (ACY-1035/veh), VPS36 (ProbeSet 11739960_a_at) / RFU SYPL1 (11715823_x_at) / Fold change /veh SYPL1 (11715823_x_at) / RFU IGFBP7 (11715501_s_at) / Fold change /veh IGFBP7 (11715501_s_at) / RFU REEP3 (11722064_at) / Fold change /veh REEP3 (11722064_at) / RFU IGLL1 (11728026_x_at) / Fold change /veh IGLL1 (11728026_x_at): dose or concentration left out as unconfirmed
Details: ProbeSet 11758779_at; LIST B

With Nc1ncn([C@@H]2O[C@H](CO)[C@@H](O)[C@H]2O)c(=O)n1 [azacitidine] the “Fold change vs veh, TMEM50B” value was 0.94.
